US9055743B2, “Alpha, beta-unsaturated imines” (BAYER INTELLECTUAL PROPERTY GMBH, priority 2010, dated 2015)

What was measured:
Type in all cases: in vivo
Boophilus microplus = Boophilus microplus test (BOOPMI injection); settings: 20 μg/animal, injection into the abdomen, after 7 days
Protocol: Boophilus microplus Test (BOOPMI Injection)
(§1) Solvent: Dimethyl Sulphoxide
To produce a suitable preparation of active compound, 10 mg of active compound are mixed with 0.5 ml of solvent and the concentrate is diluted with solvent to the desired concentration. The solution of active compound is injected into the abdomen (Boophilus microplus), and the animals are transferred into dishes and kept in a climatized room. The activity is assessed by […] of fertile eggs.
After 7 days, the effect in % is determined 100% means that none of the ticks has laid any fertile eggs.

Ctenocephalides felis = Ctenocephalides felis oral test (CTECFE); settings: 100 ppm in citrated cattle blood, after two days
Protocol: Ctenocephalides Felis Oral Test (CTECFE)
Solvent: 1 Part by Weight of Dimethyl Sulphoxide
To produce a suitable preparation of active compound, 10 mg of active compound are mixed with 0.5 ml of dimethyl sulphoxide. Part of the concentrate is diluted with citrated cattle blood, and the desired concentration is prepared.
About 20 unfed adult fleas (Ctenocephalides felis) are placed into a chamber which is closed at the top and bottom with gauze. A metal cylinder whose bottom end is closed with parafilm is placed onto the chamber. The cylinder contains the blood/active compound preparation, which can be taken up by the fleas through the parafilm membrane. After two days, the kill in % is determined 100% means that all fleas have been killed; 0% means that none of the fleas have been killed.

Aedes aegypti = assay: Aedes test (AEDSAE surface treatment); settings: for knock-down activity: 100 mg/m^2, two hours after contact, exposition 30 minutes
Protocol: Aedes Test (AEDSAE Surface Treatment)
To produce a suitable preparation of active compound, the active compound is dissolved in acetone (2 mg/ml). The active compound preparation is pipetted onto a glazed tile and, after drying, adult mosquitoes of the species Aedes aegypti are placed onto the treated tile. The exposition time is 30 minutes.
Two hours after contact to the treated surface, the knock-down proportion of the test animals in % is determined.
24 hours after contact to the treated surface, the mortality in % is determined Here, 100% means that all mosquitoes have been killed; 0% means that none of the mosquitoes has been killed.

[1] = test system: greenhouse red spider mite (Tetranychus urticae); assay: Tetranychus test; OP-resistant (TETRUR spray treatment); settings: 500 g/ha, spray, after 6 days
Summary of the method: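 Bean leaf discs infested with all stages of OP-resistant Tetranychus urticae were sprayed with compound in acetone/DMF with alkylaryl polyglycol ether emulsifier, diluted in emulsifier-water. Mortality was scored after 6 days: 100% means all mites killed, 0% none.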

[2] = test system: cat fleas (Ctenocephalides felis, fully sensitive laboratory strain); assay: Contact test against fleas in-vitro (CTECFE contact); settings: 500 g/ha, after 48 h
Summary of the method: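 Test tubes coated from acetone solutions by rotation, top concentration 500 g/ha (500 μg/dm^2) on tube surface, serial 1:5 dilutions. 10-20 CO2-anesthetized adult fleas held at room temperature for 24 and 48 h. Activity scored versus acetone control: knock-down or death of all fleas = 100%.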

[3] = test system: caterpillars of the army worm (Spodoptera frugiperda); assay: Spodoptera frugiperda test (SPODFR spray treatment); settings: 500 g/ha, spray, after 7 days
Summary of the method: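 Maize leaf discs sprayed with compound formulated in acetone/dimethylformamide plus alkylaryl polyglycol ether emulsifier and diluted in water, then infested with Spodoptera frugiperda caterpillars once dry. Mortality scored after 7 days as % activity, where 100% means all caterpillars killed.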

Lucilia cuprina larvae = assay: Lucilia cuprina test (LUCICU); settings: 100 ppm, after 2 days
Protocol: Lucilia cuprina Test (LUCICU)
as §1
To produce a suitable preparation of active compound, 10 mg of active compound are mixed with 0.5 ml of dimethyl sulphoxide and the concentrate is diluted with water to the desired concentration. Vessels containing horsemeat treated with the active compound preparation of the desired concentration are populated with about 20 Lucilia cuprina larvae.
After 2 days, the kill in % is determined. 100% means that all larvae have been killed; 0% means that none of the larvae have been killed.

[4] = test system: Anopheles gambiae (homocygus kdr); assay: Anopheles test (ANPHGB surface treatment); settings: for knock-down activity: 100 mg/m^2, two hours after contact, exposition 30 minutes
Summary of the method: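 Compound dissolved in acetone at 2 mg/ml, pipetted onto glazed tile and dried; adult kdr-homozygous mosquitoes exposed on the tile for 30 min. Knock-down (%) read 2 h and mortality (%) 24 h after contact.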

[5] = test system: larvae of the mustard beetle (Phaedon cochleariae); assay: Phaedon test (PHAECO spray treatment); settings: 500 g/ha, spray, after 7 days
Summary of the method: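 Chinese cabbage leaf discs sprayed with compound formulated in acetone/dimethylformamide with alkylaryl polyglycol ether emulsifier, diluted in emulsifier-containing water to the desired concentration. After drying, discs were populated with mustard beetle larvae.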

[6] = test system: green peach aphid (Myzus persicae); assay: Myzus test (MYZUPE spray treatment); settings: 500 g/ha, spray, after 6 days
Summary of the method: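 Chinese cabbage leaf discs infested with all aphid stages were sprayed with compound in acetone/DMF with emulsifier, diluted in emulsifier-containing water. Mortality in % assessed after 6 days (100% = all aphids killed).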

[7] = test system: Boophilus microplus strain Parkhurst, SP-resistant; assay: Boophilus microplus test (DIP); settings: 100 ppm, after 7 days
Protocol: Boophilus microplus Test (DIP) Test Animals: Adult Fat Females of the Boophilus microplus Strain Parkhurst—SP-Resistant) Solvent: Dimethyl Sulphoxide
10 mg of active compound are dissolved in 0.5 ml of dimethyl sulphoxide. To produce a suitable formulation, the active compound solution is diluted with water to the particular desired concentration.
This active compound preparation is pipetted into tubes. 8-10 ticks are transferred into a further tube provided with holes. The tube is dipped into the active compound preparation, with all the ticks being wetted completely. After the liquid has run off, the ticks are transferred to filter discs in plastic dishes and kept in a climatized room. After 7 days, the activity is checked for deposition of fertile eggs. Eggs whose fertility is not visible from the outside are kept in glass tubes in a climatized cupboard until the larvae have hatched. An activity of 100% means that no tick has laid fertile eggs.

Musca domestica = Musca domestica test (MUSCDO); settings: 100 ppm, after 2 days
Protocol: Musca domestica Test (MUSCDO)
as §1
To produce a suitable preparation of active compound, 10 mg of active compound are mixed with 0.5 ml of dimethyl sulphoxide and the concentrate is diluted with water to the desired concentration. Vessels containing a sponge treated with the active compound preparation of the desired concentration are populated with adult Musca domestica.
After 2 days, the kill in % is determined 100% means that all flies have been killed; 0% means that none of the flies have been killed.

Cc1ccc(N=C2C(=CSc3ccc(F)cc3F)CCc3ccccc32)cc1 [Example 1-79]
100%: activity (100% = none of the ticks has laid any fertile eggs) (Boophilus microplus) | activity (kill in %) (Ctenocephalides felis) | knock-down activity (Aedes aegypti) | activity (spider mites killed) [1] | activity against cat fleas [2] | activity (caterpillars killed) [3] | activity (kill in %) (Lucilia cuprina larvae) | knock-down activity [4] | activity (beetle larvae killed) [5] | activity (aphids killed) [6]

Cc1ccc(N=C2C(=CSc3ccccc3)CSc3ccccc32)cc1 [Example 1-4]
100%: activity (100% = none of the ticks has laid any fertile eggs) (Boophilus microplus) | activity (kill in %) (Ctenocephalides felis) | activity (spider mites killed) [1] | activity against cat fleas [2] | activity (caterpillars killed) [3] | activity (kill in %) (Lucilia cuprina larvae) | activity (100% = no tick has laid fertile eggs) [7] | knock-down activity [4] | activity (beetle larvae killed) [5] | activity (aphids killed) [6]

Cc1ccc(N=C2/C(=C/Sc3ccccc3)CCc3ccccc32)cc1 [Example 1-1]
100%: activity (100% = none of the ticks has laid any fertile eggs) (Boophilus microplus) | knock-down activity (Aedes aegypti) | mortality at 100 mg/m2 (Aedes aegypti; Aedes aegypti, read-out: activity (mortality in %)) | pest or weed control at 500 g/ha ([1]; Tetranychus urticae, 144 h, read-out: activity (spider mites killed)) | activity against cat fleas [2] | pest or weed control at 500 g/ha ([3]; Spodoptera frugiperda, 168 h, read-out: activity (caterpillars killed)) | activity (kill in %) (Lucilia cuprina larvae) | activity (100% = no tick has laid fertile eggs) [7] | knock-down activity [4] | mortality at 100 mg/m2 ([4]; Anopheles gambiae, read-out: activity (mortality in %)) | pest or weed control at 500 g/ha ([5]; Phaedon cochleariae, 168 h, read-out: activity (beetle larvae killed)) | pest or weed control at 500 g/ha ([6]; Myzus persicae, 144 h, read-out: activity (aphids killed))
80%: activity (kill in %) (Ctenocephalides felis)

Cc1ccc(N=C2C(=CSc3cccc(Cl)c3)CCc3ccccc32)cc1 [Example 1-62]
80%: activity (kill in %) (Lucilia cuprina larvae)
100%: activity (100% = none of the ticks has laid any fertile eggs) (Boophilus microplus) | activity (kill in %) (Ctenocephalides felis) | activity (spider mites killed) [1] | activity against cat fleas [2] | activity (caterpillars killed) [3] | activity (100% = no tick has laid fertile eggs) [7] | knock-down activity [4] | activity (beetle larvae killed) [5] | activity (aphids killed) [6]

COc1ccc(N=C2C(=CSc3ccccc3)CCc3ccccc32)cc1 [Example 1-10]
100%: activity (100% = none of the ticks has laid any fertile eggs) (Boophilus microplus) | activity (spider mites killed) [1] | activity against cat fleas [2] | activity (caterpillars killed) [3] | activity (kill in %) (Musca domestica) | activity (beetle larvae killed) [5]
80%: activity (kill in %) (Ctenocephalides felis)
95%: knock-down activity [4]
90%: activity (kill in %) (Lucilia cuprina larvae)

Cc1ccc(N=C2C(=CSc3ccc(Cl)cc3)CCc3ccccc32)cc1 [Example 1-59]
100%: activity (100% = none of the ticks has laid any fertile eggs) (Boophilus microplus) | activity (kill in %) (Ctenocephalides felis) | activity (spider mites killed) [1] | activity against cat fleas [2] | activity (caterpillars killed) [3] | activity (100% = no tick has laid fertile eggs) [7] | activity (beetle larvae killed) [5] | activity (aphids killed) [6]
90%: activity (kill in %) (Lucilia cuprina larvae)

Cc1ccc(N=C2C(=CSc3ccc(F)c(F)c3)CCc3ccccc32)cc1 [Example 1-74]
100%: activity (100% = none of the ticks has laid any fertile eggs) (Boophilus microplus) | activity (spider mites killed) [1] | activity against cat fleas [2] | activity (caterpillars killed) [3] | activity (kill in %) (Lucilia cuprina larvae) | knock-down activity [4] | activity (beetle larvae killed) [5] | activity (aphids killed) [6]
80%: activity (kill in %) (Ctenocephalides felis)
95%: knock-down activity (Aedes aegypti)

Cc1ccc(N=C2C(=CSc3ccc(F)cc3)CCc3c(F)cccc32)cc1 (mixture of isomers) [Example 1-34]
80%: activity (100% = no tick has laid fertile eggs) [7]
100%: activity (100% = none of the ticks has laid any fertile eggs) (Boophilus microplus) | activity (kill in %) (Ctenocephalides felis) | knock-down activity (Aedes aegypti) | activity against cat fleas [2] | activity (caterpillars killed) [3] | activity (kill in %) (Lucilia cuprina larvae) | knock-down activity [4] | activity (beetle larvae killed) [5]

Cc1ccc(N=C2C(=CSc3ccccc3F)CCc3ccccc32)cc1 [Example 1-80]
90%: activity (kill in %) (Ctenocephalides felis)
100%: activity (100% = none of the ticks has laid any fertile eggs) (Boophilus microplus) | activity (spider mites killed) [1] | activity against cat fleas [2] | activity (caterpillars killed) [3] | activity (kill in %) (Lucilia cuprina larvae) | knock-down activity [4] | activity (beetle larvae killed) [5] | activity (aphids killed) [6]
80%: knock-down activity (Aedes aegypti)
